Consider four compounds from US20240034991A1, “METHOD FOR EFFICIENTLY INDUCING REPROGRAMMING OF HUMAN CELL INTO NEURONAL CELL” (GUANGXI UNIVERSITY, priority 2022, published 2024).

The test has as its system Human skin fibroblasts (BJ). Put plainly: Immunofluorescence detection of neuronal cell marker antigens in induced human skin fibroblasts (CiNCs). The format is cell-based. Here is the method: After 48 h of induction, the induction medium was replaced with a neuronal cell maturation medium to continue promoting further maturation of the CiNCs, and the neuronal cell maturation medium was replaced with a neuronal cell medium after 72 h for long-term culture.
Immunofluorescence detection of neuronal cell marker antigens was conducted on human skin fibroblasts and cells induced by neuronal cell induction (N2B27+10 μM Forskolin) for 48 h. The method included the following specific steps: human skin fibroblasts and F-48h cells in a culture plate were fixated with 4% paraformaldehyde (PFA) at room temperature for 30 min; the cells were washed with a blocking solution three times, 5 min in each time; the cells were permeabilized by 1% TritonX-100 for 15 min at room temperature; the cells were washed with the blocking solution three times again; non-specific sites were blocked with 5% donkey serum, and then blocked for 2 h at room temperature; the cells were washed three times with TBP (Tritonx-Bovine albumin-Phosphate Buffer Saline) for 5 min in each time; a primary antibody was added for incubation at 4° C. overnight; on a next day, the culture plate was placed at room temperature, rewarmed for 20 min, and then washed with TBP three times for 5 min in each time, a secondary antibody and a Hoechst mixture were added in the dark, and incubated at room temperature for 1 h; after washing three times with a TBP solution, fluorescence microscope observation and photographing experiment were conducted.

As to `C=C[C@@]1(C)CC(=O)[C@]2(O)[C@@]3(C)[C@@H](O)CCC(C)(C)[C@@H]3[C@H](O)[C@H](OC(C)=O)[C@@]2(C)O1` [Forskolin], the “TUJ1 positive rate of CiNCs” value (N2B27+KSR+10 μM Forskolin, 48 h after induction) is recorded as 80%. `c1ccc2c(-c3cnn4cc(-c5ccc(N6CCNCC6)cc5)cnc34)ccnc2c1` [LDN193189]: the “Expression of neuronal cell marker antigens TUJ1, MAP2 and NeuN (immunofluorescence, FIG. 5)” value (from here on “Expression”) (N2B27+KSR+5 μM compound) was “expressed neuronal cell marker antigens TUJ1, MAP2 and NeuN”. Regarding `C[S+]([O-])c1ccc(-c2nc(-c3ccncc3)c(-c3ccc(F)cc3)[nH]2)cc1` (stereo not shown) [SB203580], the “Expression” value (N2B27+KSR+5 μM compound) is “expressed neuronal cell marker antigens TUJ1, MAP2 and NeuN”. With `Nc1ncnc2c1ncn2[C@@H]1O[C@@H]2COP(=O)(O)O[C@H]2[C@H]1O` [cAMP, cyclic Adenosine Monophosphate], where the note is “N2B27+KSR+10 μM compound”, the “Expression” value is “expressed neuronal cell marker antigens TUJ1, MAP2 and NeuN”.
